Measurements as given in article PMC12824250 (Nature Communications, 2025).

Key:
rdMPXV^Δ96,158 [1] = test: microbe, parasite or virus in culture; assay type: cell-based; conditions: Monkeypox virus, 30 h
rdMPXV^Δ96,158 [2] = assay type: cell-based
VACV [3] = conditions: cited from earlier work
VACV [4] = conditions: in vivo; cited from earlier work

SMILES | EC50 (rdMPXV^Δ96,158 [1]) [µM] | Gaussia luciferase activity (rdMPXV^Δ96,158 [2]) | mean fluorescence intensity of mGreen-positive cells (rdMPXV^Δ96,158 [2]) | cytopathic effect (CPE) inhibition (VACV [3]) | protection from VACV infection (VACV [4])
Nc1ccn(C[C@@H](CO)OCP(=O)(O)O)c(=O)n1 [Cidofovir] | 10.5 | reduced Gaussia luciferase activity | showed decreased intensity |  | 
Cc1cc(C(=O)NNC(=O)c2ccncc2)ccc1Cl [IMCBH, N1-isonicotinoly-N2-3-methyl-4-chlorobenzoylhydrazine] |  |  |  | complete cytopathic effect (CPE) inhibition | failed to protect
